# Laboratory results published in patent US12617779B2, “Self degradation-type CDK9 inhibitor prodrug and liposome encapsulating same” (Sumitomo Pharma Co., Ltd., priority 2021, dated 2026).
# Assay: Evaluation of conversion rate to active form in buffer solution (Experimental Example 1)
# Type: physicochemical
# Settings: for Production rate of Alvocidib / Residual rate: 25 umol/L in buffer solution; for Stability in buffer solution at pH 5: pH 5, 37° C., up to 2 or 3 hours; for Conversion to Alvocidib at pH 7.4: pH 7.4, 37° C., up to 3 hours
# Procedure, shortened: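 Conversion to Alvocidib and loss of parent were followed by HPLC over 3 h (samples at 0, 0.5, 1, 2, 3 h). Incubations used 25 umol/L compound at 37 °C across pH 5.0–7.4, in 50 mM citrate below pH 6.0 and 50 mM phosphate from pH 6.0 upward.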
smiles,measurement,setting,value
"CCCN(C[C@@H]1CCCCN1)C(=O)Oc1cc(O)c2c(=O)cc(-c3ccccc3Cl)oc2c1[C@H]1CCN(C)C[C@H]1O [Example 5, 2-(2-chlorophenyl)-5-hydroxy-8-[(3S,4R)-3-hydroxy-1-methylpiperidin-4-yl]-4-oxo-4H-1-benzopyran-7-yl {[(2S)-piperidin-2-yl]methyl}propylcarbamate]",Efficiency of conversion to Alvocidib,"buffer solution, 37° C.",higher efficiency
same,Production rate of Alvocidib,"pH5.0, 0 hr, 37° C.",0.0%
same,Residual rate,"pH5.0, 0 hr, 37° C.",98.7%
same,Stability in buffer solution at pH 5,,stable
same,Production rate of Alvocidib,"pH5.0, 0.5 hr, 37° C.",0.6%
same,Residual rate,"pH5.0, 0.5 hr, 37° C.",98.3%
same,Production rate of Alvocidib,"pH5.0, 1 hr, 37° C.",1.1%
same,Residual rate,"pH5.0, 1 hr, 37° C.",97.8%
same,Production rate of Alvocidib,"pH5.0, 2 hr, 37° C.",2.3%
same,Residual rate,"pH5.0, 2 hr, 37° C.",96.7%
same,Production rate of Alvocidib,"pH5.0, 3 hr, 37° C.",3.4%
same,Residual rate,"pH5.0, 3 hr, 37° C.",95.8%
same,Production rate of Alvocidib,"pH5.5, 0 hr, 37° C.",0.0%
same,Residual rate,"pH5.5, 0 hr, 37° C.",98.3%
same,Production rate of Alvocidib,"pH5.5, 0.5 hr, 37° C.",1.2%
same,Residual rate,"pH5.5, 0.5 hr, 37° C.",97.2%
same,Production rate of Alvocidib,"pH5.5, 1 hr, 37° C.",2.1%
same,Residual rate,"pH5.5, 1 hr, 37° C.",96.4%
same,Production rate of Alvocidib,"pH5.5, 2 hr, 37° C.",3.9%
same,Residual rate,"pH5.5, 2 hr, 37° C.",94.5%
same,Production rate of Alvocidib,"pH5.5, 3 hr, 37° C.",5.7%
same,Residual rate,"pH5.5, 3 hr, 37° C.",92.7%
same,Production rate of Alvocidib,"pH6.0, 0 hr, 37° C.",0.0%
same,Residual rate,"pH6.0, 0 hr, 37° C.",98.7%
same,Production rate of Alvocidib,"pH6.0, 0.5 hr, 37° C.",3.6%
same,Residual rate,"pH6.0, 0.5 hr, 37° C.",95.2%
same,Production rate of Alvocidib,"pH6.0, 1 hr, 37° C.",6.6%
same,Residual rate,"pH6.0, 1 hr, 37° C.",92.2%
same,Production rate of Alvocidib,"pH6.0, 2 hr, 37° C.",12.8%
same,Residual rate,"pH6.0, 2 hr, 37° C.",85.7%
same,Production rate of Alvocidib,"pH6.0, 3 hr, 37° C.",18.6%
same,Residual rate,"pH6.0, 3 hr, 37° C.",79.8%
same,Production rate of Alvocidib,"pH6.5, 0 hr, 37° C.",0.0%
same,Residual rate,"pH6.5, 0 hr, 37° C.",98.4%
same,Production rate of Alvocidib,"pH6.5, 0.5 hr, 37° C.",9.5%
same,Residual rate,"pH6.5, 0.5 hr, 37° C.",88.9%
same,Production rate of Alvocidib,"pH6.5, 1 hr, 37° C.",17.1%
same,Residual rate,"pH6.5, 1 hr, 37° C.",80.9%
same,Production rate of Alvocidib,"pH6.5, 2 hr, 37° C.",32.1%
same,Residual rate,"pH6.5, 2 hr, 37° C.",65.5%
same,Production rate of Alvocidib,"pH6.5, 3 hr, 37° C.",44.2%
same,Residual rate,"pH6.5, 3 hr, 37° C.",52.6%
same,Production rate of Alvocidib,"pH7.0, 0 hr, 37° C.",0.0%
same,Residual rate,"pH7.0, 0 hr, 37° C.",98.4%
same,Production rate of Alvocidib,"pH7.0, 0.5 hr, 37° C.",25.0%
same,Residual rate,"pH7.0, 0.5 hr, 37° C.",72.7%
same,Production rate of Alvocidib,"pH7.0, 1 hr, 37° C.",41.9%
same,Residual rate,"pH7.0, 1 hr, 37° C.",55.0%
same,Production rate of Alvocidib,"pH7.0, 2 hr, 37° C.",66.7%
same,Residual rate,"pH7.0, 2 hr, 37° C.",28.7%
same,Production rate of Alvocidib,"pH7.0, 3 hr, 37° C.",79.9%
same,Residual rate,"pH7.0, 3 hr, 37° C.",15.0%
same,Production rate of Alvocidib,"pH7.4, 0 hr, 37° C.",0.0%
same,Residual rate,"pH7.4, 0 hr, 37° C.",98.7%
same,Conversion to Alvocidib at pH 7.4,,rapidly converted to Alvocidib
same,Production rate of Alvocidib,"pH7.4, 0.5 hr, 37° C.",47.5%
same,Residual rate,"pH7.4, 0.5 hr, 37° C.",49.4%
same,Production rate of Alvocidib,"pH7.4, 1 hr, 37° C.",69.8%
same,Residual rate,"pH7.4, 1 hr, 37° C.",25.9%
same,Production rate of Alvocidib,"pH7.4, 2 hr, 37° C.",88.9%
same,Residual rate,"pH7.4, 2 hr, 37° C.",5.9%
same,Production rate of Alvocidib,"pH7.4, 3 hr, 37° C.",93.2%
same,Residual rate,"pH7.4, 3 hr, 37° C.",1.5%
"CCCN(C[C@H]1CCCCN1)C(=O)Oc1cc(O)c2c(=O)cc(-c3ccccc3Cl)oc2c1[C@H]1CCN(C)C[C@H]1O [Example 6, 2-(2-chlorophenyl)-5-hydroxy-8-[(3S,4R)-3-hydroxy-1-methylpiperidin-4-yl]-4-oxo-4H-1-benzopyran-7-yl {[(2R)-piperidin-2-yl]methyl}propylcarbamate]",Production rate of Alvocidib,"pH5.0, 0 hr, 37° C.",0.5%
same,Residual rate,"pH5.0, 0 hr, 37° C.",99.3%
same,Stability in buffer solution at pH 5,,stable
same,Production rate of Alvocidib,"pH5.0, 0.5 hr, 37° C.",0.9%
same,Residual rate,"pH5.0, 0.5 hr, 37° C.",99.1%
same,Production rate of Alvocidib,"pH5.0, 1 hr, 37° C.",1.3%
same,Residual rate,"pH5.0, 1 hr, 37° C.",98.7%
same,Production rate of Alvocidib,"pH5.0, 2 hr, 37° C.",2.0%
same,Residual rate,"pH5.0, 2 hr, 37° C.",97.8%
same,Production rate of Alvocidib,"pH5.0, 3 hr, 37° C.",2.6%
same,Residual rate,"pH5.0, 3 hr, 37° C.",96.8%
same,Production rate of Alvocidib,"pH5.5, 0 hr, 37° C.",0.5%
same,Residual rate,"pH5.5, 0 hr, 37° C.",99.5%
same,Production rate of Alvocidib,"pH5.5, 0.5 hr, 37° C.",1.6%
same,Residual rate,"pH5.5, 0.5 hr, 37° C.",98.1%
same,Production rate of Alvocidib,"pH5.5, 1 hr, 37° C.",2.5%
same,Residual rate,"pH5.5, 1 hr, 37° C.",97.0%
same,Production rate of Alvocidib,"pH5.5, 2 hr, 37° C.",4.3%
same,Residual rate,"pH5.5, 2 hr, 37° C.",94.2%
same,Production rate of Alvocidib,"pH5.5, 3 hr, 37° C.",6.2%
same,Residual rate,"pH5.5, 3 hr, 37° C.",91.9%
same,Production rate of Alvocidib,"pH6.0, 0 hr, 37° C.",0.6%
same,Residual rate,"pH6.0, 0 hr, 37° C.",99.4%
same,Production rate of Alvocidib,"pH6.0, 0.5 hr, 37° C.",4.0%
same,Residual rate,"pH6.0, 0.5 hr, 37° C.",94.8%
same,Production rate of Alvocidib,"pH6.0, 1 hr, 37° C.",7.1%
same,Residual rate,"pH6.0, 1 hr, 37° C.",90.7%
same,Production rate of Alvocidib,"pH6.0, 2 hr, 37° C.",13.2%
same,Residual rate,"pH6.0, 2 hr, 37° C.",82.5%
same,Production rate of Alvocidib,"pH6.0, 3 hr, 37° C.",18.6%
same,Residual rate,"pH6.0, 3 hr, 37° C.",75.2%
same,Production rate of Alvocidib,"pH6.5, 0 hr, 37° C.",0.6%
same,Residual rate,"pH6.5, 0 hr, 37° C.",99.4%
same,Production rate of Alvocidib,"pH6.5, 0.5 hr, 37° C.",10.1%
same,Residual rate,"pH6.5, 0.5 hr, 37° C.",86.6%
same,Production rate of Alvocidib,"pH6.5, 1 hr, 37° C.",18.6%
same,Residual rate,"pH6.5, 1 hr, 37° C.",75.3%
same,Production rate of Alvocidib,"pH6.5, 2 hr, 37° C.",31.9%
same,Residual rate,"pH6.5, 2 hr, 37° C.",56.9%
same,Production rate of Alvocidib,"pH6.5, 3 hr, 37° C.",42.8%
same,Residual rate,"pH6.5, 3 hr, 37° C.",42.3%
same,Production rate of Alvocidib,"pH7.0, 0 hr, 37° C.",0.7%
same,Residual rate,"pH7.0, 0 hr, 37° C.",99.3%
same,Production rate of Alvocidib,"pH7.0, 0.5 hr, 37° C.",27.0%
same,Residual rate,"pH7.0, 0.5 hr, 37° C.",63.7%
same,Production rate of Alvocidib,"pH7.0, 1 hr, 37° C.",44.4%
same,Residual rate,"pH7.0, 1 hr, 37° C.",40.4%
same,Production rate of Alvocidib,"pH7.0, 2 hr, 37° C.",62.8%
same,Residual rate,"pH7.0, 2 hr, 37° C.",16.1%
same,Production rate of Alvocidib,"pH7.0, 3 hr, 37° C.",69.8%
same,Residual rate,"pH7.0, 3 hr, 37° C.",6.8%
same,Production rate of Alvocidib,"pH7.4, 0 hr, 37° C.",0.9%
same,Residual rate,"pH7.4, 0 hr, 37° C.",99.1%
same,Conversion to Alvocidib at pH 7.4,,rapidly converted to Alvocidib
same,Production rate of Alvocidib,"pH7.4, 0.5 hr, 37° C.",47.8%
same,Residual rate,"pH7.4, 0.5 hr, 37° C.",36.3%
same,Production rate of Alvocidib,"pH7.4, 1 hr, 37° C.",65.7%
same,Residual rate,"pH7.4, 1 hr, 37° C.",12.7%
same,Production rate of Alvocidib,"pH7.4, 2 hr, 37° C.",73.6%
same,Residual rate,"pH7.4, 2 hr, 37° C.",2.7%
same,Production rate of Alvocidib,"pH7.4, 3 hr, 37° C.",75.3%
same,Residual rate,"pH7.4, 3 hr, 37° C.",0.7%
